Assays:
human AAH cDNA (pHAAH) = experiment: in vitro cell free transcription translation assay (TNT Quick Coupled System); assay type: biochemical; settings: 100× or 1000× excess oligonucleotide; rabbit reticulocyte lysate, [35S] methionine, SDS-PAGE autoradiography
Procedure: Using an in vitro cell free transcription translation assay (TNT Quick Coupled System), the human AAH cDNA (pHAAH) was used to synthesize AAH protein. […] The translated product was labeled with [^35S] methionine in the presence of reaction buffer, RNA polymerase, amino acid mixture, and ribonuclease inhibitor (RNAsin). The products were analyzed by SDS-PAGE followed by autoradiography. A luciferase (Luc) expressing plasmid was used as a positive control. In the second and third lanes, synthesis of the ˜85 kD AAH protein is shown (AAH, arrow) using 1 or 2 micrograms of plasmid as the template and the T7 DNA-dependent RNA polymerase primer/promoter to generate mRNA.

AAH = experiment: MICE assay of AAH immunoreactivity in transfected cells; assay type: cell-based; settings: relative to cells transfected with random oligonucleotide
Procedure: Inhibition of HAAH gene expression is enhanced by contacting cells with a phosphorothioate derivative of the HAAH antisense. Phosphorothioate antisense derivatives are made using methods well known in the art. The MILQ assay was used to measure gene expression resulting from antisense oligonucleotide gene delivery. Cells were contacted with AAH Location-6 antisense DNA, and AAH protein expression was measured using methods known in the art, e.g., the MICE assay (de la Monte, et al, 1999, Biotechniques), to determine if it was inhibited by hybridization with the oligonucleotide. The MICE assay is used to measure inimunoreactivity in cultured cells without the need to extract proteins or perform gel electrophoresis. This assay is more sensitive than Western blot analysis. Using the MICE assay, AAH immunoreactivity was assessed in cells transfected with non-relevant (random) oligonucleotide sequences, specific antisense oligonucleotides (Location-6), and a phosphorothioate Location-6 antisense oligonucleotide.

AAH in PNET2 cells = experiment: Western blot of AAH expression in treated PNET2 cells; assay type: cell-based, Human
Procedure: Studies were conducted to determine whether AAH expression was modulated with neurite (filopodia) extension (sprouting) as occurs with invasive growth of malignant neoplasms. Human PNET2 CNS-derived and SH-Sy5y neuroblastoma cells were cultured and stimulated for 0, 1, 2, 3, 5, or 7 days with 100 nM phorbol […] or 10 μM retinoic acid to induce sprouting. […] For both studies, AAH expression was evaluated by Western blot analysis using the an HAAH-specific antibody.
(§1) Cells grown in 10 cm^2 dishes were lysed and homogenized in a standard radioimmunoprecipitation assay RIPA buffer containing protease and phosphatase inhibitors. The supernatants collected after centrifuging the samples at 12,000×g for 10 minutes to remove insoluble debris were used for Western blot analysis. Protein concentration was measured using the BCA assay (Pierce Chemical Co, Rockford, Ill.). Samples containing 60 μg of protein were electrophoresed in sodium dodecyl sulfate polyacrylamide gels (SDS-PAGE) and subjected to Western blot analysis. Replicate blots were probed with the individual antibodies. Immunoreactivity was detected with horseradish peroxidase conjugated IgG (Pierce Chemical Co, Rockford, Ill.) and enhanced chemiluminescence reagents. To quantify the levels of protein expression, non-saturated autoradiographs were subjected to volume densitometry using NIH Image software, version 1.6. […]

PNET2 cells = experiment: Trypan blue dye exclusion viability; assay type: cell-based, Human; settings: 24 hours, sub-lethal concentrations of H2O2
Procedure: FIGS. 5A-D are bar graphs showing increased AAH expression in PNET2 (FIGS. 5A, 5C) and SH-Sy5y (FIG. 5B) cells treated with retinoic acid (FIGS. 5A, 5B) or phorbol ester myristate (PMA; FIG. 5C) to induce neurite outgrowth as occurs during tumor cell invasion. The cells were treated with 10 μM retinoic acid or 100 nM PMA for 0, 1, 2, 3, 4, or 7 days. Cell lysates were analyzed by Western blot analysis using an HAAH-specific monoclonal antibody to detect the 85 kDa AAH protein. The levels of immunoreactivity were measured by volume densitometry (arbitrary units). The graphs indicate the mean±S.D. of results obtained from three separate experiments. In FIG. 5D, PNET2 cells were treated for 24 hours with sub-lethal concentrations of H2O2 to induce neurite retraction. […] Similar results were obtained for SH-Sy5y cells.
To examine the effect of AAH expression on neurite retraction, PNET2 and SH-Sy5y cells were treated with low concentrations (8-40 μM) of H2O2.

AAH in SH-Sy5y cells = experiment: Western blot of AAH expression in treated SH-Sy5y cells; assay type: cell-based, Human; settings: up to 7 days, FIG. 5B
Procedure: Studies were conducted to determine whether AAH expression was modulated with neurite (filopodia) extension (sprouting) as occurs with invasive growth of malignant neoplasms. Human PNET2 CNS-derived and SH-Sy5y neuroblastoma cells were cultured and stimulated for 0, 1, 2, 3, 5, or 7 days with 100 nM phorbol […] or 10 μM retinoic acid to induce sprouting. In addition, to examine the effects of neurite retraction on AAH expression, subconfluent cultures were treated for 24 hours with low concentrations (10-40 μM) of H2O2. For both studies, AAH expression was evaluated by Western blot analysis using the an HAAH-specific antibody.
as §1, with “Samples containing 60 μg of protein were electrophoresed in sodium dodecyl sulfate polyacrylamide gels (SDS-PAGE) and subjected to Western blot analysis. Replicate blots were probed with the individual antibodies.” left out

HAAH gene expression = experiment: insulin stimulation of HAAH gene expression in FOCUS HCC cells; assay type: cell-based, human; settings: 20 and 40 U insulin, serum free medium, after 16 hr of serum starvation
Source text: IRS-1 mediated signal transduction pathway is activated in 95% of human HCC tumors compared to the adjacent uninvolved liver tissue. HAAH is a downstream effector gene involved in this signal transduction pathway. […] A high level of HAAH protein is expressed in HCC and cholangiocarcinoma compared to normal hepatocytes and bile ducts.

**Q.** How did the “inhibition of AAH protein synthesis” value (human AAH cDNA (pHAAH)) turn out when “5′ ATCATGCAATGGCCCAGCGTAA 3′ (sense ATCATGCAATGGCCCAGCGTAA; listed as DNA, chemistry not given here) [sense oligonucleotide, sense oligonucleotide beginning at Location-3, control]” was run?
**A.** Its value is “no effect”.

**Q.** Which AAH immunoreactivity (AAH) does the source give for “5′ TTACGCTGGGCCATTGCACG 3′ (antisense TTACGCTGGGCCATTGCACG; listed as DNA, chemistry not given here) [Location-6, AAH antisense oligonucleotide (20 mer)]” here?
**A.** The AAH immunoreactivity was “reduced levels”.

**Q.** Which “levels of AAH protein” value (AAH in PNET2 cells; 24 hours, 8-40 μM H2O2, FIG. 5D) does the source give for `OO` [H2O2] here?
**A.** Its value is “dose-dependent reductions”.

**Q.** What about the “Viability of the cells” value (PNET2 cells) of the same compound?
**A.** The value was “greater than 90%”.

**Q.** For `CCCCCCCCCCCCCC(=O)O[C@@H]1[C@@H](C)[C@@]2(O)[C@@H](C=C(CO)C[C@]3(O)C(=O)C(C)=C[C@@H]23)[C@@H]2C(C)(C)[C@]12OC(C)=O` [PMA, phorbol ester myristate], which “increase in levels of AAH protein” value (AAH in PNET2 cells; 24 hours after exposure, 10 μM retinoic acid or 100 nM PMA) is on record?
**A.** The value was “at least two-fold”.

**Q.** And the “RA- or PMA-stimulated increases in AAH expression” value (AAH in SH-Sy5y cells)?
**A.** Its value is “highest after 7 days of treatment”.

**Q.** “Insulin: insulin used to stimulate FOCUS HCC cells” was tested. Which HAAH gene expression (HAAH gene expression) did it give?
**A.** The HAAH gene expression was “upregulation”.

Reference: patent publication US6835370B2, “Diagnosis and treatment of malignant neoplasms” (Rhode Island Hospital, priority 1999, dated 2004)
